# Experimental data from PubChem BioAssay AID248 (DTP/NCI, 2004).
# Where “and” joins values, the source holds several entries; their conditions need not be identical. Equal values may be shown once. Toxic doses and inconclusive results are not listed.
# Test system: L1210 leukemia ip in BDF1 mice, survival T/C
# Experiment: NCI In Vivo Anticancer Drug Screen. Data for tumor model L1210 Leukemia (intraperitoneal) in B6D2F1 (BDF1) mice
# Conditions: endpoint: mean survival time, higher = longer survival
# How it was run: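 Value reflects the ratio of survival in compound-treated mice to survival in vehicle-treated controls, with both groups carrying the same transplanted tumor.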
# [1] = dose: 50.0 mg/kg/injection, schedule: Q01DX009 (ip), vehicle: Klucel (hydroxypropylcellulose) (HPC)
# [2] = dose: 100.0 mg/kg/injection, schedule: Q01DX009 (ip), vehicle: Klucel (hydroxypropylcellulose) (HPC)
# [3] = dose: 100.0 mg/kg/injection, schedule: Q04DX002 (ip), vehicle: saline
# [4] = dose: 3.12 mg/kg/injection, schedule: Q01DX009 (ip), vehicle: saline
# [5] = dose: 6.25 mg/kg/injection, schedule: Q01DX009 (ip), vehicle: saline
# [6] = dose: 50.0 mg/kg/injection, schedule: Q04DX003 (ip), vehicle: Klucel (hydroxypropylcellulose) (HPC)
# [7] = dose: 100.0 mg/kg/injection, schedule: Q04DX003 (ip), vehicle: Klucel (hydroxypropylcellulose) (HPC)
# [8] = dose: 100.0 mg/kg/injection, schedule: Q04DX003 (ip), vehicle: saline with Tween-80
# [9] = dose: 200.0 mg/kg/injection, schedule: Q04DX003 (ip), vehicle: saline with Tween-80
# [10] = dose: 400.0 mg/kg/injection, schedule: Q04DX003 (ip), vehicle: saline with Tween-80
# [11] = dose: 200.0 mg/kg/injection, schedule: Q04DX003 (ip), vehicle: Klucel (hydroxypropylcellulose) (HPC)
# [12] = dose: 400.0 mg/kg/injection, schedule: Q04DX003 (ip), vehicle: Klucel (hydroxypropylcellulose) (HPC)
# [13] = dose: 100.0 mg/kg/injection, schedule: Q01DX001 (ip), vehicle: saline
# [14] = dose: 200.0 mg/kg/injection, schedule: Q01DX001 (ip), vehicle: saline
# [15] = dose: 400.0 mg/kg/injection, schedule: Q01DX001 (ip), vehicle: saline
# [16] = dose: 200.0 mg/kg/injection, schedule: Q01DX009 (ip), vehicle: Klucel (hydroxypropylcellulose) (HPC)
# [17] = dose: 400.0 mg/kg/injection, schedule: Q01DX009 (ip), vehicle: Klucel (hydroxypropylcellulose) (HPC)
smiles,measurement,setting,value
CSc1nc(Cl)c(Cl)c(SC)n1 (tested in a mixture with another compound),T/C,[1],87 % of control
same,T/C,[2],87 % of control
O=C(CCl)NP(=O)(O)OCc1ccccc1,T/C,"dose: 25.0 mg/kg/injection, schedule: Q04DX002 (ip), vehicle: saline",102 % of control
same,T/C,"dose: 50.0 mg/kg/injection, schedule: Q04DX002 (ip), vehicle: saline",94 % of control
same,T/C,[3],91 % of control
Cn1c2ccccc2c2nnc(NCCCO)nc21,T/C,"dose: 100.0 mg/kg/injection, schedule: Q04DX002 (ip), vehicle: saline with Tween-80",86 % of control
same,T/C,"dose: 200.0 mg/kg/injection, schedule: Q04DX002 (ip), vehicle: saline with Tween-80",104 % of control
same,T/C,"dose: 400.0 mg/kg/injection, schedule: Q04DX002 (ip), vehicle: saline with Tween-80",97 % of control
CCCCCCCCCCCC[N+](CCO)(CCO)Cc1ccccc1,T/C,[4],96 % of control
same,T/C,[5],98 % of control
same,T/C,"dose: 12.5 mg/kg/injection, schedule: Q04DX003 (ip), vehicle: saline",88 % of control
O=P1(O)Cc2ccccc2-c2ccccc21,T/C,"dose: 100.0 mg/kg/injection, schedule: Q01DX001 (ip), vehicle: other",96 % of control
same,T/C,"dose: 200.0 mg/kg/injection, schedule: Q01DX001 (ip), vehicle: other",101 % of control
same,T/C,"dose: 400.0 mg/kg/injection, schedule: Q01DX001 (ip), vehicle: other",98 % of control
O=C(CCl)Nc1ccc([As](=O)(O)O)cc1,T/C,"dose: 25.0 mg/kg/injection, schedule: Q01DX009 (ip), vehicle: Klucel (hydroxypropylcellulose) (HPC)",98 % of control
same,T/C,[1],91 % of control
same,T/C,[6],94 % of control
same,T/C,[7],97 % of control
Cc1ccc2nc(C)ccc2c1,T/C,"dose: 50.0 mg/kg/injection, schedule: Q01DX001 (ip), vehicle: Klucel (hydroxypropylcellulose) (HPC)",101 % of control
same,T/C,"dose: 100.0 mg/kg/injection, schedule: Q01DX001 (ip), vehicle: Klucel (hydroxypropylcellulose) (HPC)",109 % of control
same,T/C,"dose: 200.0 mg/kg/injection, schedule: Q01DX001 (ip), vehicle: Klucel (hydroxypropylcellulose) (HPC)",107 % of control
Cc1ccc(S(=O)(=O)Nc2ccc(C(=O)O)c(Cl)c2)cc1,T/C,[8],108 % of control
same,T/C,[9],92 % of control
same,T/C,[10],104 % of control
CCn1nnc2c(N(C)C)nc(N)nc21,T/C,[1],93 % of control
same,T/C,[2],95 % of control
same,T/C,[7],93 % of control
same,T/C,[11],92 % of control
O=C(NCCc1ccccc1)Nc1cc([N+](=O)[O-])ccc1F,T/C,[7],94 % of control
same,T/C,[11],96 % of control
same,T/C,[12],102 % of control
O=c1cc(CCc2ccccc2)cc[nH]1,T/C,[13],97 % of control
same,T/C,[14],103 % of control
same,T/C,[15],111 % of control
COC1OC2COc3ccccc3OC2C(N=C(N)N[N+](=O)[O-])C1O (configuration not stated),T/C,"dose: 100.0 mg/kg/injection, schedule: Q01DX009 (ip), vehicle: gum acacia",97 % of control
same,T/C,"dose: 200.0 mg/kg/injection, schedule: Q01DX009 (ip), vehicle: gum acacia",100 % of control
same,T/C,"dose: 400.0 mg/kg/injection, schedule: Q01DX009 (ip), vehicle: gum acacia",95 % of control
COc1ccc(/C=N/NC(=O)c2ccc(N=NN(C)C)cc2)c(OC)c1,T/C,"dose: 75.0 mg/kg/injection, schedule: Q04DX003 (ip), vehicle: Klucel (hydroxypropylcellulose) (HPC)",104 % of control
same,T/C,"dose: 150.0 mg/kg/injection, schedule: Q04DX003 (ip), vehicle: Klucel (hydroxypropylcellulose) (HPC)",97 % of control
same,T/C,"dose: 300.0 mg/kg/injection, schedule: Q04DX003 (ip), vehicle: Klucel (hydroxypropylcellulose) (HPC)",99 % of control
C=CCCCCCCCCC(=O)NCCCC(OCC)OCC,T/C,"dose: 100.0 mg/kg/injection, schedule: Q04DX003 (ip), vehicle: saline",106 % of control
same,T/C,"dose: 200.0 mg/kg/injection, schedule: Q04DX003 (ip), vehicle: saline",95 % of control
same,T/C,"dose: 400.0 mg/kg/injection, schedule: Q04DX003 (ip), vehicle: saline",95 % of control
CCCCN(CCCC)N=Nc1c[nH]c(=O)[nH]c1=O,T/C,"dose: 8.0 mg/kg/injection, schedule: Q01DX Z (ip), vehicle: carboxymethylcellulose (CMC)",114 % of control
same,T/C,"dose: 16.0 mg/kg/injection, schedule: Q01DX Z (ip), vehicle: carboxymethylcellulose (CMC)",109 % of control
CC(=O)Nc1ncnc2c(C3OC(COC(C)=O)C(OC(C)=O)C3OC(C)=O)[nH]nc12 (configuration not stated),T/C,[13],100 % of control
same,T/C,[14],97 % of control
same,T/C,[15],100 % of control
CC(=O)C1CCCC23CC(CC12)C(C)(C)C3OC=O (configuration not stated),T/C,[2],96 % of control
same,T/C,[7],90 % of control
same,T/C,[16],100 % of control
same,T/C,[11],92 % of control
same,T/C,[17],107 % of control
same,T/C,[12],95 % of control
COC(=O)c1cc(C)c(Br)c(N)c1,T/C,[2],101 % of control
same,T/C,[7],100 % of control
same,T/C,[16],101 % of control
same,T/C,[11],92 % of control
same,T/C,[17],98 % of control
same,T/C,[12],95 % of control
CC(C)C1CCC(C)C(NC(N)=O)C1 (configuration not stated),T/C,[13],95 % of control
same,T/C,[14],97 % of control
same,T/C,[15],106 % of control
CCC(=O)OC(OC(=O)CC)c1cccc2ccccc12,T/C,"dose: 222.0 mg/kg/injection, schedule: Q01DX Z (ip), vehicle: saline",90 % of control
same,T/C,"dose: 333.0 mg/kg/injection, schedule: Q01DX Z (ip), vehicle: saline",86 % of control
same,T/C,"dose: 500.0 mg/kg/injection, schedule: Q01DX Z (ip), vehicle: saline",95 % of control
CCC(=O)NC1=C(N2CC2C)C(=O)C(NC(=O)CC)=C(N2CC2C)C1=O (configuration not stated),T/C,[4],111 % of control
same,T/C,[5],124 % of control
same,T/C,"dose: 12.5 mg/kg/injection, schedule: Q01DX009 (ip), vehicle: saline",153 % of control
same,T/C,"dose: 25.0 mg/kg/injection, schedule: Q01DX009 (ip), vehicle: saline",177 % of control
same,T/C,"dose: 35.0 mg/kg/injection, schedule: Q01DX009 (ip), vehicle: Klucel (hydroxypropylcellulose) (HPC)",103 % of control
O=C(NC(Cc1ccccc1)C(=O)N1CCOCC1)c1ccccc1 (configuration not stated),T/C,[13],91 % of control
same,T/C,[14],98 % of control
same,T/C,[15],89 % of control
CCCCCCCCCN=C(N)CSSCC(N)=NCCCCCCCCC,T/C,"dose: 1.0 mg/kg/injection, schedule: Q01DX009 (ip), vehicle: Klucel (hydroxypropylcellulose) (HPC)",109 % of control
same,T/C,"dose: 1.0 mg/kg/injection, schedule: Q04DX002 (ip), vehicle: Klucel (hydroxypropylcellulose) (HPC)",101 % of control
same,T/C,"dose: 2.0 mg/kg/injection, schedule: Q01DX009 (ip), vehicle: Klucel (hydroxypropylcellulose) (HPC)",111 % of control
same,T/C,"dose: 2.0 mg/kg/injection, schedule: Q04DX002 (ip), vehicle: Klucel (hydroxypropylcellulose) (HPC)",116 % of control
same,T/C,"dose: 4.0 mg/kg/injection, schedule: Q01DX009 (ip), vehicle: Klucel (hydroxypropylcellulose) (HPC)",109 % of control
same,T/C,"dose: 4.0 mg/kg/injection, schedule: Q04DX002 (ip), vehicle: Klucel (hydroxypropylcellulose) (HPC)",116 % of control
Clc1ccc(SCN2CCCCC2)cc1,T/C,"dose: 25.0 mg/kg/injection, schedule: Q04DX003 (ip), vehicle: Klucel (hydroxypropylcellulose) (HPC)",93 % of control
same,T/C,[6],95 % of control
same,T/C,[7],93 % of control and 95 % of control
COc1cc2c(c3oc(=O)ccc13)C=CC(C)(C)O2,T/C,[7],102 % of control
same,T/C,[11],107 % of control
same,T/C,[12],94 % of control
N#Cc1ccc(OCCCOc2ccccc2)cc1,T/C,"dose: 100.0 mg/kg/injection, schedule: Q01DX001 (ip), vehicle: saline with Tween-80",100 % of control
same,T/C,"dose: 200.0 mg/kg/injection, schedule: Q01DX001 (ip), vehicle: saline with Tween-80",102 % of control
same,T/C,"dose: 400.0 mg/kg/injection, schedule: Q01DX001 (ip), vehicle: saline with Tween-80",93 % of control
C/C=C/C=C\COC(=O)C(C)Cl (configuration not stated),T/C,[3],108 % of control
same,T/C,"dose: 200.0 mg/kg/injection, schedule: Q04DX002 (ip), vehicle: saline",103 % of control
same,T/C,"dose: 400.0 mg/kg/injection, schedule: Q04DX002 (ip), vehicle: saline",108 % of control
O=C1C2C3CCC(O3)C2C(=O)N1CC#CCCl (configuration not stated),T/C,"dose: 6.25 mg/kg/injection, schedule: Q04DX002 (ip), vehicle: saline with Tween-80",100 % of control
same,T/C,"dose: 12.5 mg/kg/injection, schedule: Q04DX002 (ip), vehicle: saline with Tween-80",106 % of control
Nc1nc(N)c(-c2ccccc2)c(C=O)n1,T/C,[8],110 % of control
same,T/C,[9],117 % of control
same,T/C,[10],110 % of control
